Assay results taken from ChEMBL document CHEMBL3885881, “DrugMatrix”.

Species: Rattus norvegicus
Assay: DrugMatrix - Regimen: Daily Repeat
Assay type: toxicity, organism-based, Sprague-Dawley
Parameters: regimen Daily Repeat, gender Male, age 6-8 weeks
Conditions: in vivo, po, route oral GAVAGE, vehicle 100 % WATER; for ABSOLUTE BASOPHIL / ABSOLUTE EOSINOPHIL / ABSOLUTE LYMPHOCYTE / ABSOLUTE MONOCYTE / ABSOLUTE SEGMENTED NEUTROPHIL / BASOPHIL / EOSINOPHIL / ERYTHROCYTE COUNT / HEMATOCRIT / HEMOGLOBIN / LEUKOCYTE COUNT / LYMPHOCYTE / MEAN CORPUSCULAR HEMOGLOBIN / MEAN CORPUSCULAR HEMOGLOBIN CONCENTRATION / MEAN CORPUSCULAR VOLUME / MONOCYTE / NEUTROPHIL / NUCLEATED RED BLOOD CELLS / PLATELET COUNT: tissue Blood; for ALANINE AMINOTRANSFERASE / ALBUMIN / ALKALINE PHOSPHATASE / ASPARTATE AMINOTRANSFERASE / BLOOD UREA NITROGEN / CARBON DIOXIDE / CHLORIDE / CHOLESTEROL / CREATINE PHOSPHOKINASE / CREATININE / GLUCOSE / LACTATE DEHYDROGENASE / LIPASE / PHOSPHORUS / POTASSIUM / SODIUM / TOTAL BILIRUBIN / TOTAL PROTEIN / URIC ACID: tissue Plasma
[1] = 19.5 mg/kg, 120 h, dose level Low, time 5 day
[2] = 75 mg/kg, 72 h, dose level High, time 3 day
[3] = 75 mg/kg, 120 h, dose level High, time 5 day

## CN1CCC[C@H]1c1cccnc1 [NICOTINE]
[1]
  ABSOLUTE BASOPHIL: 0 CELLS/uL
  ABSOLUTE EOSINOPHIL: 37.67 CELLS/uL
  ABSOLUTE LYMPHOCYTE: 10299.33 CELLS/uL
  ABSOLUTE MONOCYTE: 0 CELLS/uL
  ABSOLUTE SEGMENTED NEUTROPHIL: 1096.33 CELLS/uL
  BASOPHIL: 0%
  EOSINOPHIL: 0.33%
  ERYTHROCYTE COUNT: 5.67 x10E6/uL
  HEMATOCRIT: 35.63%
  HEMOGLOBIN: 14.17 G/DL
  LEUKOCYTE COUNT: 11.43 x10E3/uL
  LYMPHOCYTE: 90.33%
  MEAN CORPUSCULAR HEMOGLOBIN: 25 pg
  MEAN CORPUSCULAR HEMOGLOBIN CONCENTRATION: 39.77 G/DL
  MEAN CORPUSCULAR VOLUME: 62.83 fL
  MONOCYTE: 0%
  NEUTROPHIL: 9.33%
  NUCLEATED RED BLOOD CELLS: 0.33 /100WBC
  PLATELET COUNT: 1167.67 x10E3/uL
  ALANINE AMINOTRANSFERASE: 54.67 u/L
  ALBUMIN: 4.17 G/DL
  ALKALINE PHOSPHATASE: 397.33 u/L
  ASPARTATE AMINOTRANSFERASE: 83.67 u/L
  BLOOD UREA NITROGEN: 12 mg/dL
  CARBON DIOXIDE: 34.33 mmol/L
  CHLORIDE: 101 MEQ/L
  CHOLESTEROL: 62.33 mg/dL
  CREATINE PHOSPHOKINASE: 196.67 u/L
  CREATININE: 0.21 mg/dL
  GLUCOSE: 146.67 mg/dL
  LACTATE DEHYDROGENASE: 207.67 u/L
  LIPASE: 11.67 u/L
  PHOSPHORUS: 11.63 mg/dL
  POTASSIUM: 6.48 MEQ/L
  SODIUM: 143.9 MEQ/L
  TOTAL BILIRUBIN: 0.23 mg/dL
  TOTAL PROTEIN: 6.03 G/DL
  URIC ACID: 1.2 mg/dL
[2]
  ABSOLUTE BASOPHIL: 0 CELLS/uL
  ABSOLUTE EOSINOPHIL: 0 CELLS/uL
  ABSOLUTE LYMPHOCYTE: 13562.33 CELLS/uL
  ABSOLUTE MONOCYTE: 210.33 CELLS/uL
  ABSOLUTE SEGMENTED NEUTROPHIL: 827.33 CELLS/uL
  BASOPHIL: 0%
  EOSINOPHIL: 0%
  ERYTHROCYTE COUNT: 5.82 x10E6/uL
  HEMATOCRIT: 37.17%
  HEMOGLOBIN: 14.57 G/DL
  LEUKOCYTE COUNT: 14.6 x10E3/uL
  LYMPHOCYTE: 93%
  MEAN CORPUSCULAR HEMOGLOBIN: 25.03 pg
  MEAN CORPUSCULAR HEMOGLOBIN CONCENTRATION: 39.2 G/DL
  MEAN CORPUSCULAR VOLUME: 63.87 fL
  MONOCYTE: 1.33%
  NEUTROPHIL: 5.67%
  NUCLEATED RED BLOOD CELLS: 0.33 /100WBC
  PLATELET COUNT: 1370 x10E3/uL
  ALANINE AMINOTRANSFERASE: 58.67 u/L
  ALBUMIN: 4.07 G/DL
  ALKALINE PHOSPHATASE: 398 u/L
  ASPARTATE AMINOTRANSFERASE: 92 u/L
  BLOOD UREA NITROGEN: 11 mg/dL
  CARBON DIOXIDE: 25.67 mmol/L
  CHLORIDE: 101.33 MEQ/L
  CHOLESTEROL: 64 mg/dL
  CREATINE PHOSPHOKINASE: 288.33 u/L
  CREATININE: 0.13 mg/dL
  GLUCOSE: 150.33 mg/dL
  LACTATE DEHYDROGENASE: 290.67 u/L
  LIPASE: 10.33 u/L
  PHOSPHORUS: 11.73 mg/dL
  POTASSIUM: 6.07 MEQ/L
  SODIUM: 143.23 MEQ/L
  TOTAL BILIRUBIN: 0.17 mg/dL
  TOTAL PROTEIN: 5.73 G/DL
  URIC ACID: 1.6 mg/dL
[3]
  ABSOLUTE BASOPHIL: 0 CELLS/uL
  ABSOLUTE EOSINOPHIL: 0 CELLS/uL
  ABSOLUTE LYMPHOCYTE: 9380.67 CELLS/uL
  ABSOLUTE MONOCYTE: 97.67 CELLS/uL
  ABSOLUTE SEGMENTED NEUTROPHIL: 455 CELLS/uL
  BASOPHIL: 0%
  EOSINOPHIL: 0%
  ERYTHROCYTE COUNT: 6.33 x10E6/uL
  HEMATOCRIT: 38.6%
  HEMOGLOBIN: 15.23 G/DL
  LEUKOCYTE COUNT: 9.93 x10E3/uL
  LYMPHOCYTE: 94.33%
  MEAN CORPUSCULAR HEMOGLOBIN: 24.1 pg
  MEAN CORPUSCULAR HEMOGLOBIN CONCENTRATION: 39.5 G/DL
  MEAN CORPUSCULAR VOLUME: 61 fL
  MONOCYTE: 1%
  NEUTROPHIL: 4.67%
  NUCLEATED RED BLOOD CELLS: 0.33 /100WBC
  PLATELET COUNT: 1256.67 x10E3/uL
  ALANINE AMINOTRANSFERASE: 64.67 u/L
  ALBUMIN: 4.53 G/DL
  ALKALINE PHOSPHATASE: 383 u/L
  ASPARTATE AMINOTRANSFERASE: 91 u/L
  BLOOD UREA NITROGEN: 12.67 mg/dL
  CARBON DIOXIDE: 33 mmol/L
  CHLORIDE: 101.67 MEQ/L
  CHOLESTEROL: 71.67 mg/dL
  CREATINE PHOSPHOKINASE: 315 u/L
  CREATININE: 0.22 mg/dL
  GLUCOSE: 140.33 mg/dL
  LACTATE DEHYDROGENASE: 131.33 u/L
  LIPASE: 9.67 u/L
  PHOSPHORUS: 9.5 mg/dL
  POTASSIUM: 5.03 MEQ/L
  SODIUM: 147.7 MEQ/L
  TOTAL BILIRUBIN: 0.17 mg/dL
  TOTAL PROTEIN: 6.6 G/DL
  URIC ACID: 0.77 mg/dL
